Results taken from PMC3618516, “A Systematic Screen of FDA-Approved Drugs for Inhibitors of Biological Threat Agents” (PLoS ONE, 2013).
Read-outs that look alike come from different tables or passages of the source.

Key:
[1] = system: EBOV; assay: microbe, parasite or virus in culture; assay type: cell-based, Ebola virus
[2] = system: EBOV GP-pseudotyped vesicular stomatitis virus; assay: microbe, parasite or virus in culture; assay type: cell-based, Ebola virus; conditions: for inhibition at 10 µM / inhibition at 50 µM: Zaire ebolavirus, HEK-293T, read-out: EBOV VPEN (% activity)
[3] = system: MARV GP-pseudotyped vesicular stomatitis virus; assay: microbe, parasite or virus in culture; assay type: cell-based, Marburg virus; conditions: for inhibition at 10 µM / inhibition at 50 µM: Vesicular stomatitis virus, HEK-293T, read-out: MASV VPEN (% activity)
[4] = system: MARV; assay: organism not typed; assay type: cell-based, Marburg virus
[5] = system: LASV GP-pseudotyped vesicular stomatitis virus; assay: microbe, parasite or virus in culture; assay type: cell-based, Lassa virus; conditions: Vesicular stomatitis virus, HEK-293T, read-out: LASV VPEN (% activity)
[6] = system: EBOV; assay type: cell-based, Ebola virus
[7] = system: LASV; assay type: cell-based, Lassa virus
[8] = humans; no reference given; cited from earlier work
[9] = system: Coxiella burnetii; assay: microbe, parasite or virus in culture; assay type: cell-based; conditions: Vero, 168 h, read-out: Coxiella burnetii ICR (% protection)
[10] = system: Francisella tularensis; assay: microbe, parasite or virus in culture; assay type: cell-based; conditions: J774.A1, 15 h, read-out: Fransciella tularensis ICR (% protection)
[11] = system: Bacillus anthracis; assay type: cell-based; conditions: 50 µM
[12] = system: Francisella tularensis; assay type: cell-based; conditions: 50 µM
[13] = system: Bacillus anthracis; assay: microbe, parasite or virus in culture; assay type: cell-based; conditions: J774.A1, 15 h, read-out: Bacillus anthracis ICR (% protection)

CCN(CC)CCCNc1ccnc2cc(Cl)ccc12 [AQ-13, Aminoquinoline-13]
EC50 ([1]; read-out: EC50, EBOV Replication): 21 µM | EC90 ([1]; read-out: EC90, EBOV Replication): 39 µM | EC50 ([2]; read-out: EC50, EBOV Entry): 4.3 µM | EC90 ([2]; read-out: EC90, EBOV Entry): 20 µM | EC50 ([3]; read-out: EC50, MARV Entry): 4.3 µM | EC90 ([3]; read-out: EC90, MARV Entry): 16 µM | EC50 ([4]; read-out: EC50, MARV Replication): 42 µM | EC90 ([4]; read-out: EC90, MARV Replication): 48 µM

CCOC(=O)C1=C(COCCN)NC(C)=C(C(=O)OC)C1c1ccccc1Cl (stereo not shown) [Amlodipine]
inhibition at 10 µM [2]: 93% | inhibition at 10 µM [3]: 93% | inhibition at 10 µM [5]: 61%

OC(CCN1CCCCC1)(c1ccccc1)C1CC2C=CC1C2 (stereo not shown) [Biperiden]
EBOV VR ([6]; 50 µM): − | inhibition at 50 µM [2]: 98% | inhibition at 50 µM [3]: 89% | inhibition at 50 µM [5]: 27% | LASV VR ([7]; 50 µM): −

CC(C(=O)O)c1ccc2c(c1)[nH]c1ccc(Cl)cc12 (stereo not shown) [Carprofen]
EBOV VR ([6]; 10 µM): − | inhibition at 10 µM [2]: 94% | inhibition at 10 µM [3]: 88% | inhibition at 10 µM [5]: 50% | LASV VR ([7]; 10 µM): −

CC[C@H]1OC(=O)[C@H](C)[C@@H](O[C@H]2C[C@@](C)(OC)[C@@H](O)[C@H](C)O2)[C@H](C)[C@@H](O[C@@H]2O[C@H](C)C[C@H](N(C)C)[C@H]2O)[C@](C)(OC)C[C@@H](C)C(=O)[C@H](C)[C@@H](O)[C@]1(C)O [Clarithromycin]
bioavailable [8]: ~50%

CCC[C@@H]1C[C@@H](C(=O)N[C@@H]([C@H]2O[C@H](SC)[C@H](O)[C@@H](O)[C@H]2O)[C@H](C)Cl)N(C)C1 [Clindamycin]
inhibition of growth at 50 µM [9]: 0% | inhibition at 50 µM [10]: 83%

CN(C)CC[C@@H](c1ccc(Br)cc1)c1ccccn1 [Dexbrompheniramine]
inhibition at 50 µM [2]: 85% | inhibition at 50 µM [3]: 80% | inhibition at 50 µM [5]: 74%

CCCCOc1cc(C(=O)NCCN(CC)CC)c2ccccc2n1 [Dibucaine]
EBOV VR ([6]; 10 µM): − | inhibition at 10 µM [2]: 99% | inhibition at 10 µM [3]: 93% | inhibition at 10 µM [5]: 49%

CCOC(=O)C1(c2ccccc2)CCN(CCC(C#N)(c2ccccc2)c2ccccc2)CC1 [Diphenoxylate]
EBOV VR ([6]; 50 µM): + | inhibition at 50 µM [2]: 96% | inhibition at 50 µM [3]: 95% | inhibition at 50 µM [5]: 83%

CN1CCC(OC(c2ccccc2)c2ccccc2)CC1 [Diphenylpyraline]
EBOV VR ([6]; 50 µM): + | inhibition at 50 µM [2]: 96% | inhibition at 50 µM [3]: 85% | inhibition at 50 µM [5]: 22% | LASV VR ([7]; 50 µM): −

CNCC(O)c1ccc(OC(=O)C(C)(C)C)c(OC(=O)C(C)(C)C)c1 (stereo not shown) [Dipivefrin]
EBOV VR ([6]; 50 µM): − | inhibition at 50 µM [2]: 94% | inhibition at 50 µM [3]: 90% | inhibition at 50 µM [5]: 90% | LASV VR ([7]; 50 µM): −

CC[C@H]1OC(=O)[C@H](C)[C@@H](O[C@H]2C[C@@](C)(OC)[C@@H](O)[C@H](C)O2)[C@H](C)[C@@H](O[C@@H]2O[C@H](C)C[C@H](N(C)C)[C@H]2O)[C@](C)(O)C[C@@H](C)C(=O)[C@H](C)[C@@H](O)[C@]1(C)O [Erythromycin]
inhibition of growth at 50 µM [9]: 100% | EBOV VR ([6]; 10 µM): − | inhibition at 10 µM [2]: 96% | Bacillus anthracis Broth (% protection) [11]: + | inhibition at 10 µM [3]: 98% | inhibition at 10 µM [5]: 60% | Fransciella tularensis Broth (% protection) [12]: + | LASV VR ([7]; 10 µM): − | inhibition at 50 µM [13]: 96% | inhibition at 50 µM [10]: 104%

C[C@]12CC[C@@H]3c4ccc(O)cc4CC[C@H]3[C@@H]1CC[C@@H]2O [Estradiol]
EBOV VR ([6]; 10 µM): − | inhibition at 10 µM [2]: 93% | inhibition at 10 µM [3]: 98% | inhibition at 10 µM [5]: 50% | LASV VR ([7]; 10 µM): −

CNCCC(Oc1ccc(C(F)(F)F)cc1)c1ccccc1 (stereo not shown) [Fluoxetine]
EBOV VR ([6]; 10 µM): − | inhibition at 10 µM [2]: 96% | inhibition at 10 µM [3]: 98% | inhibition at 10 µM [5]: 76% | LASV VR ([7]; 10 µM): −

CO/N=C1\CN(c2nc3c(cc2F)c(=O)c(C(=O)O)cn3C2CC2)CC1CN (stereo not shown) [Gemifloxacin]
inhibition of growth at 50 µM [9]: 0% | Bacillus anthracis Broth (% protection) [11]: − | Fransciella tularensis Broth (% protection) [12]: − | inhibition at 50 µM [13]: 97% | inhibition at 50 µM [10]: 91%
